# Results taken from patent US20100093985A1, “USE OF AT LEAST ONE CYTOSOLIC PHOSPHOLIPASE A2 INHIBITOR AS A MEDICINE FOR SYMPTOMATIC TREATMENT OF MUCOVISCIDOSIS” (INSTITUT PASTEUR, priority 2006, published 2010).
# Tested on: CFTR+/+ and CFTR−/− mice
# Assay: Production of mucus in the airways of mice (alcian blue score), with or without LPS from P. aeruginosa
# Format: in vivo, mouse
# Conditions: for Average Score (production of mucus in the airways): D4
# Experimental: The studies were carried out on a cystic fibrosis model established in C57BL/6J mice (Cftr^tmUNC mice) kept on a mixed gene pool by the “Centre de Distribution, de Typage et d'Archivage Animal” UPS44 CNRS in Orléans. Wild-type CFTR^+/+ and mutant CFTR^−/− mice were weaned at 3-4 weeks and fed with food supplemented with a commercial laxative, Movicol®. Without laxative CFTR^−/− mice die rapidly after weaning due to bowel obstructions resulting from a change in the secretion of fluids in the digestive tract.
# The experiments were conducted on groups of at least 5 mice aged 5-7 weeks for each category of treatment.
# The products used were dissolved in an injectable saline solution (or physiological saline) and injected by intratracheal (i.t.) or intraperitoneal (i.p.) route.
# The use protocol was as follows:
# 1) Aspirin (50 mg/kg, i.p.), 30 minutes before LPS, then each day, once a day;
# 2) ATK (20 mg/kg, i.p.), 30 minutes before LPS and 24 hours after.
# The mice were anesthetized with 2% xylazine (8 mg/kg) and ketamine 1000 (40 mg/kg) before the infusion of LPS (330 μg/kg, i.t.).
# Bronchoalveolar lavages (BALs) and lung samplings were carried out 4 days after the infusion of LPS, as indicated below:
# The lungs were infused with 4% formaldehyde to remove the blood and immersed in 4% formaldehyde for 48 hours at 4° C. before being added to paraffin.
# Sections 5 μm thick were stained with hemotoxylin/eosin, periodic acid-Schiff (PAS) and alcian blue (AB; pH 2.4) according to standard methods (Histologie Normale et Pathologique. P. GANTER & G. Jolies, Gauthier-Villars).
# After microscopic examination of the sections stained with alcian blue, which colours the mucus, the positive bronchi and cells were counted. The “number of positive bronchi/number of positive cells” ratio makes it possible to establish the score which serves to evaluate the results of the mucus production studies (see below).
smiles,measurement,setting,value
"CC(=O)Oc1ccccc1C(=O)O [asp, aspirin]",Average Score (production of mucus in the airways),"CFTR+/+ mice, LPS 330 μg/kg i.t. + aspirin 50 mg/kg i.p.",0
same,Average Score (production of mucus in the airways),"CFTR+/+ mice, control (physiological saline, no LPS) + aspirin 50 mg/kg i.p.",0.25
same,secretion of mucus,CFTR−/− mice stimulated by infusion with LPS of Pseudomonas aeruginosa,inhibited
same,Average Score (production of mucus in the airways),"CFTR−/− mice, LPS 330 μg/kg i.t. + aspirin 50 mg/kg i.p.",0
same,Average Score (production of mucus in the airways),"CFTR−/− mice, control (physiological saline, no LPS) + aspirin 50 mg/kg i.p.",0.50
